From US10016373B2, “CB2 receptor ligands for the treatment of psychiatric disorders” (priority 2013, dated 2018)
Like-named read-outs stand apart in the source and are kept apart here.

Columns and labels:
[1] = tested on: mice; assay type: in vivo
Procedure: For the treated mice, one of the two CB2 receptor-selective agonist solutions: either CB2 agonist2 solution or H-308 solution, was administered by intravenous administration to mice pups to induce ADHD-like behavior and/or obsessive-compulsive-like behavior as a murine model for ADHD and OCD. […] In order to test the effect of non-agonist or mixed-type agonist/inverse agonist CB2 receptor ligands on hyperactivity, the effects of M1 were studied.
Open-Field Test (Crossing and Rearing, Defecation, Grooming)
Mice were assessed for hyperactive behavior on postnatal days 16-20, 26-39, at age 13 weeks and at age 23 weeks. Mice were placed in the center of a transparent glass cage 30×40×31 cm divided into squares of 7.5×7.5 cm. The number of squares crossed and the rearing activity were evaluated for 8 min.

[2] = tested on: mice; test: Prepulse inhibition (PPI) of the startle reflex; assay type: in vivo
Procedure: Attention Test: Prepulse Inhibition (PPI) of the Startle Reflex
A weak audible stimulus (74-90 dB tone) “prepulse” was used to inhibit the acoustic startle response to a subsequent strong audible stimulus (120 dB tone) “pulse”. Reduced prepulse inhibition of the startle reflex (PPI) was taken as an index of the positive symptoms of deficits in attention.
PPI was assessed similarly to the method described by Varty et al. (2001). Mice were placed in a startle chamber and allowed to acclimatize for 5 minutes A loudspeaker produced startling “pulse” at 120 dB and thereafter 65 dB background white noise or one of […] 20 ms duration “prepulses” at 74, 78, 82, 86, and 90 dB followed after 20 ms by a 40 ms startling “pulse” at 120 dB. The response of each mouse was recorded and stored by a computer. Each test session lasted for 11 minutes and consisted of 5 presentations of each of the prepulse/pulse sound stimuli (total of 30 or 35) presented in random order and separated by 15 second intervals. The magnitude of prepulse inhibition was calculated as percentage PPI=[1-(acoustic startle for prepulse+pulse)/(acoustic startle for pulse alone)]×100.

[3] = tested on: mice; test: Impulsivity, Elevated Plus Maze; assay type: in vivo; settings: CB2 agonist2 model mice at 13 weeks, M1 5 mg/kg i.p. 24 hours before the test
Procedure: The treatment consisted of a single intravenous administration of the vehicle or the M1 solution Impulsivity was tested 24 hours after treatment.
Impulsivity as measured by the paucity of time spent on the two anxiety-provoking, open arms (as opposed to the two enclosed arms) of an “Elevated Plus Maze” was used as a parameter of negative symptoms of schizophrenia (Josselyn and Vaccarino, 1998). The plus maze was elevated 50 cm above the table top. Behavior of each mouse was recorded for 5 minutes by a video camera and scored using the “EthoVision” software (Noldus), measuring the number of entries as well as the amount of time spent in each arm, open or closed. Reduced time spent in the closed arms indicated reduced anxiety. Increased time spent in the opened arms indicated increased risk behavior (hyperactive and impulsive).
The treatment consisted of a single i.p. administration of the vehicle or the M1 solution. The duration ratio open arm/close arm and the frequency ratio open arm/close arm in the Elevated Plus Maze were evaluated 24 hours after treatment with either vehicle or M1.

[4] = tested on: mice; test: Vocal tics, ultrasonic voice recording; assay type: in vivo
Procedure: Mice were recorded at the age of 13 or 23-25 weeks with an ultrasonic voice recorder (Noldus). Mice were recorded at the age of 29 days with an ultrasonic voice recorder (AviSoft). Single mice were recorded in a cage for 10 min (according to sex and type of treatment). The number and duration of events at 20-40 kHz and at 50-70 kHz were analyzed. In some experiments, 24 h following M1 treatment, each mouse was recorded for 10 min before and after stress. Stress was induced by incubation for 10-15 min in a mouse restrainer.

[5] = Body weight; assay type: in vivo; settings: postnatal day 100; mice treated with 0.5 mg/kg CB2 agonist2; FIG. 16C
[6] = target: T1, CB2 receptor (Homo sapiens, UniProt P34972); settings: cited from earlier work
T1 construct: expressed in transfected cells; host or cells: CHO cells
T1 sequence (P34972 whole entry): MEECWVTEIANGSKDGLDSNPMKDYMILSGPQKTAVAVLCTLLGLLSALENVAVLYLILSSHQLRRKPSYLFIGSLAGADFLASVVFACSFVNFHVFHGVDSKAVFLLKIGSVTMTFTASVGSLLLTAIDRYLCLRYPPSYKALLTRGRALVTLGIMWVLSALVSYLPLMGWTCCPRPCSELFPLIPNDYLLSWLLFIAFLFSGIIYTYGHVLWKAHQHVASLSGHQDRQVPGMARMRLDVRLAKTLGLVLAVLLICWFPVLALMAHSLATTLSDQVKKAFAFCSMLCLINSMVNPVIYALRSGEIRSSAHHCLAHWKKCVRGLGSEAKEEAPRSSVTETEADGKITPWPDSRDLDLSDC

[7] = target: T1, CB2 receptor; settings: cited from earlier work; remark: listed apart in the source
[8] = tested on: osteoclastogenesis; settings: Schuehly et al. 2011; cited from earlier work
[9] = tested on: presenilin 2 mutant mice; settings: cited from earlier work
[10] = tested on: mouse model of Alzheimer's disease; settings: orally administered, Lee et al. 2012; cited from earlier work
[11] = CB2 receptor, Schuehly et al. 2011

In the case of `C=CCc1ccc(O)c(-c2ccc(OC)c(CC=C)c2)c1` [M1, 2-(4-Methoxy-3-prop-2-enylphenyl)-4-prop-2-enylphenol], the grooming ([1]; CB2 agonist2 0.5 mg/kg at the age of 3-15 days, M1 5 mg/kg on day 29, measured on day 39, stressed female mice, FIG. 13A) is reported as “reversed”, the feces secretion ([1]; CB2 agonist2 0.5 mg/kg at the age of 3-15 days, M1 5 mg/kg on day 29, measured on day 39, stressed female mice, FIG. 13B) is reported as “reversed” and the rearing ([1]; CB2 agonist2 0.5 mg/kg at the age of 3-15 days, M1 on day 29, measured on day 36, unstressed female mice, FIG. 12A) is reported as “reversed”. The ambulation ([1]; CB2 agonist2 0.5 mg/kg at the age of 3-15 days, M1 on day 29, measured on day 39, stressed female mice, FIG. 12B) was “reversed”, the ambulation ([1]; CB2 agonist2 0.5 mg/kg model, M1 injected on day 29, measured the same day, stressed females, FIG. 11B) was “reversed” and the rearing ([1]; CB2 agonist2 0.5 mg/kg model, M1 injected on day 29, measured the same day, stressed females, FIG. 11D) was “reversed”. The hyperactivity ([1]; age of 3 months, 0.1 mg/kg HU-308, M1 5 mg/kg in gavage 30 minutes before the experiment, FIGS. 17A-B) was “reversed”, the oral availability ([1]; inferred from efficacy of M1 5 mg/kg given in gavage) was “orally available” and the ambulation ([1]; model mice 5 mg/kg CB2 agonist2 postnatal days 1-5, M1 5 mg/kg single i.p. at 13 weeks, 30 minutes after treatment, FIG. 5A) was “reversed”. The rearing ([1]; model mice 5 mg/kg CB2 agonist2 postnatal days 1-5, M1 5 mg/kg single i.p. at 13 weeks, 30 minutes after treatment, FIG. 5B) was “reversed”, the secretion of feces ([1]; model mice 5 mg/kg CB2 agonist2 postnatal days 5-13, M1 5 mg/kg single i.p. at 23 weeks, FIG. 4C) was “reversed” and the grooming duration ([1]; model mice 5 mg/kg CB2 agonist2 postnatal days 5-13, M1 5 mg/kg single i.p. at 23 weeks, tested 48 hours after treatment, FIG. 4A) was “reversed”. The grooming frequency ([1]; model mice 5 mg/kg CB2 agonist2 postnatal days 5-13, M1 5 mg/kg single i.p. at 23 weeks, tested 48 hours after treatment, FIG. 4B) was “reversed”, the “response to pre-pulse tone” value ([2]; mice treated with 0.5 mg/kg CB2 agonist2, FIG. 15B) was “reversed” and the “response to the startle tone of 120 dB” value ([2]; postnatal day 100, 0.5 mg/kg CB2 agonist2 mice, at the beginning of the experiment, FIG. 16A) was “no effect”. For the same compound, the “response to 120 dB” value ([2]; postnatal day 100, 0.5 mg/kg CB2 agonist2 mice, re-evaluated at the end of the experiment, FIG. 16B) was “reversed”, the “% PPI (pre-pulse inhibition)” value ([2]; postnatal day 100, mice treated with 0.5 mg/kg CB2 agonist2, FIG. 15A) was “reversed” and the impulsive/hyperactive behavior [3] was “reversed”. The “number of vocal events” value ([4]; 20-40 KHz, day 29, female mice, CB2 agonist2 0.5 mg/kg at the age of 3-15 days, M1 5 mg/kg on day 29, FIG. 14A) was “reversed”, the duration of vocals ([4]; 20-40 KHz, day 29, female mice, CB2 agonist2 0.5 mg/kg at the age of 3-15 days, M1 5 mg/kg on day 29, FIG. 14B) was “reversed” and the “number of vocal events” value ([4]; female mice 23-25 weeks, 20-40 KHz, stress, CB2 agonist2 5 mg/kg postnatal days 5-13, M1 given to model mice, FIG. 7A) was “reversed”. The “total duration of vocal events” value ([4]; female mice 23-25 weeks, 20-40 KHz, stress, CB2 agonist2 5 mg/kg postnatal days 5-13, M1 given to model mice, FIG. 7B) was “reversed”, the “mean duration of vocal events” value ([4]; female mice 23-25 weeks, 20-40 KHz, stress, CB2 agonist2 5 mg/kg postnatal days 5-13, M1 given to model mice, FIG. 7C) was “reversed” and the “number of vocal events” value ([4]; female mice 23-25 weeks, 50-70 KHz, stress, CB2 agonist2 5 mg/kg postnatal days 5-13, M1 given to model mice, FIG. 8A) was “reversed”. The “total duration of vocal events” value ([4]; female mice 23-25 weeks, 50-70 KHz, stress, CB2 agonist2 5 mg/kg postnatal days 5-13, M1 given to model mice, FIG. 8B) was “reversed”, the “mean duration of vocal events” value ([4]; female mice 23-25 weeks, 50-70 KHz, stress, CB2 agonist2 5 mg/kg postnatal days 5-13, M1 given to model mice, FIG. 8C) was “reversed” and the “total duration of vocal events” value ([4]; male mice 23-25 weeks, 20-40 KHz, before stress, CB2 agonist2 5 mg/kg postnatal days 5-13, M1 given to model mice, FIG. 9A) was “reversed”. The “mean duration of vocal events” value ([4]; male mice 23-25 weeks, 20-40 KHz, before stress, CB2 agonist2 5 mg/kg postnatal days 5-13, M1 given to model mice, FIG. 9B) was “reversed”, the “total duration of vocal events” value ([4]; male mice 23-25 weeks, 50-70 KHz, before stress, CB2 agonist2 5 mg/kg postnatal days 5-13, M1 given to model mice, FIG. 10A) was “reversed” and the “mean duration of vocal events” value ([4]; male mice 23-25 weeks, 50-70 KHz, before stress, CB2 agonist2 5 mg/kg postnatal days 5-13, M1 given to model mice, FIG. 10B) was “reversed”. The body weight [5] was “no effect”, the “activity via cAMP pathway” value [6, 11] was “inverse agonism” and the cAMP production ([6]; known dual effects of M1) was “increasing”. For the same compound, the “activity via Ca2+ pathway” value [7, 11] was “partial agonism”, the “intracellular Ca2+ concentration” value ([7]; known dual effects of M1) was “increasing” and the osteoclastogenesis [8] was “potently inhibits”. The memory impairment [9] was “attenuates” and the “amyloidogenesis and progression of AD” value [10] was “prevent”.
